Target: Rv0812 (Mycobacterium tuberculosis, UniProt Q79FW0)
Sequence (Q79FW0 whole entry): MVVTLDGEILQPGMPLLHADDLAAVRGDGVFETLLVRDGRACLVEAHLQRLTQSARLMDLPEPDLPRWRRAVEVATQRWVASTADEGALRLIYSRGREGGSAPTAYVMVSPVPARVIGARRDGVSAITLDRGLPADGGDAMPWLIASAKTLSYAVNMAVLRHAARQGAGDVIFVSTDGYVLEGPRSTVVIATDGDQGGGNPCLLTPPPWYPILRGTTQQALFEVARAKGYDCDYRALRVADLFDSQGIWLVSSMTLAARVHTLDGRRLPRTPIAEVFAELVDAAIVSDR

Cc1ncc(COP(=O)(O)O)c(C=O)c1O [PLP]
X-ray crystal structure (cocrystal with 0.2 mM PLP): PLP was fit into the corresponding electron density

From paper PMC8105722 (The Journal of Experimental Medicine, 2021)
